Test results taken from patent US7989620B2, “Hydantoin derivatives for the treatment of obstructive airway diseases” (AstraZeneca AB, priority 2004, dated 2011).
≈ marks a conversion by molar mass, not a printed value.

Columns and labels:
[1] = Determination of solubility in 0.1M phosphate buffer, pH 7.4; conditions: 20 °C, pH 7.4, aqueous buffer, thermodynamic from solid
Description: Protocol for Determination of Solubility
The test compound (1 mg) was weighed into a 2 mL glass vial with a screw cap and 0.1 M phosphate buffer pH 7.4. (1.00 mL) was added. The sample vial was then sonicated for about 10 minutes and then placed on a shake board overnight at 20° C. The contents of the sample vial were then filtered through a Millipore Millex-LH 0.45 μm filter into a new 2 mL glass vial to give a clear solution. The clear solution (40 μL) was transferred to a new 2 mL glass vial and diluted with 0.1 M phosphate buffer, pH 7.4 (960 μL).
A standard calibration curve for each particular test compound was established using solutions of known concentration. These solutions of known concentration were normally chosen to have concentrations of ˜10 μg/mL and ˜50 μg/mL. They were prepared by dissolving a known weight of the compound in 99.5% ethanol (500 μL) and then sonicating for one minute if necessary. If the compound was still not completely dissolved, DMSO (500 μL) was added and the mixture sonicated for an additional one minute. The resulting solution was then diluted to the appropriate volume with a mixture of acetonitrile/100 mM ammonium acetate pH 5.5 20-50/80-50. If necessary, a further, more dilute, standard solution was prepared by dilution.

[2] = molecular target: T1, Recombinant human MMP 12 catalytic domain (Homo sapiens, UniProt P39900); test: Isolated enzyme assay MMP12; assay type: biochemical; conditions: read-out: hMMP12 IC50
T1 construct: Recombinant human MMP 12 catalytic domain; made in house
Description: Recombinant human MMP 12 catalytic domain may be expressed and purified as described by Parkar A. A. et al, (2000), Protein Expression and Purification, 20, 152. The purified enzyme can be used to monitor inhibitors of activity as follows: MMP12 (50 ng/ml final concentration) is incubated for 60 minutes at room temperature with the synthetic substrate Mca-Pro-Cha-Gly-Nva-His-Ala-Dpa-NH2 (10 μM) in assay buffer (0.1M “Tris-HCP” (trade mark) buffer, pH 7.3 containing 0.1M NaCl, 20 mM CaCl2, 0.020 mM ZnCl and 0.05% (w/v) “Brij 35” (trade mark) detergent) in the presence (10 concentrations) or absence of inhibitors. Activity is determined by measuring the fluorescence at λex 320 nm and λem 405 nm. Percent inhibition is calculated as follows: % Inhibition is equal to the [Fluorescenceplus inhibitor−Fluorescencebackground] divided by the [Fluorescenceminus inhibitor−Fluorescencebackground]. MMP8

[3] = molecular target: T2, Recombinant human MMP19 catalytic domain (Homo sapiens, UniProt Q99542); test: Isolated enzyme assay MMP19; assay type: biochemical; conditions: read-out: hMMP19 IC50
T2 construct: Recombinant human MMP19 catalytic domain; made in house
Description: Recombinant human MMP19 catalytic domain may be expressed and purified as described by Parkar A. A. et al, (2000), Protein Expression and Purification, 20:152. The purified enzyme can be used to monitor inhibitors of activity as follows: MMP19 (40 ng/ml final concentration) is incubated for 120 minutes at 35° C. with the synthetic substrate Mca-Pro-Leu-Ala-Nva-Dpa-Ala-Arg-NH2 (5 μM) in assay buffer (0.1M “Tris-HCl ” (trade mark) buffer, pH 7.3 containing 0.1M NaCl, 20 mM CaCl2, 0.020 mM ZnCl and 0.05% (w/v) “Brij 35” (trade mark) detergent) in the presence (5 concentrations) or absence of inhibitors. Activity is determined by measuring the fluorescence at λex 320 nm and λem 405 nm. Percent inhibition is calculated as follows: % Inhibition is equal to the [Fluorescenceplus inhibitor−Fluorescencebackground] divided by the [Fluorescenceminus inhibitor−Fluorescencebackground].

plasma protein = test: Plasma protein binding by ultrafiltration; conditions: 10 μM, room temperature
Description: Plasma protein binding was determined by ultrafiltration in an automated 96 well format assay. On each test occasion the plasma protein binding of a reference compound (budesonide) was monitored in parallel.
Test compounds (10 mM dissolved in DMSO) were added to plasma to a final concentration of 10 μM and equilibrated at room temperature for 10 minutes. 350 μL of the plasma was transferred to an ultrafiltration plate, Microcon-96 (10 kDa cutoff, Millipore). The ultrafiltration plate was centrifuged at 3000 G for 70 minutes at room temperature. After centrifugation, the concentration of the compounds in the obtained plasma water (the unbound fraction) was determined by LC-MS/MS using a 3-point calibration curve and compared to the concentration in the original spiked plasma.
The analyses were performed using a gradient chromatographic system with acetic acid/acetonitrile as mobile phases.

[4] = molecular target: T3, Recombinant human MMP9 catalytic domain (Homo sapiens, UniProt P14780); test: Isolated enzyme assay MMP9; assay type: biochemical; conditions: read-out: hMMP9 IC50
T3 sequence (P14780 with tags, fused parts or gaps DEL216-390 limits assumed): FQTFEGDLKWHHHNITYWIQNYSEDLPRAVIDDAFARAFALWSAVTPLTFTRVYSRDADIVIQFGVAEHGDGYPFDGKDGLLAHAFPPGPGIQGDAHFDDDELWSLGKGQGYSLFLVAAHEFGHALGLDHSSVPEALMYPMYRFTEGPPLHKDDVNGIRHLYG
Description: Recombinant human MMP9 catalytic domain was expressed and then purified by Zn chelate column chromatography followed by hydroxamate affinity column chromatography. The enzyme can be used to monitor inhibitors of activity as follows: MMP9 (5 ng/ml final concentration) is incubated for 30 minutes at RT with the synthetic substrate Mca-Pro-Cha-Gly-Nva-His-Ala-Dpa-NH2 (5 μM) in assay buffer (0.1 M “Tris-HCl” (trade mark) buffer, pH 7.3 containing 0.1M NaCl, 20 mM CaCl2, 0.020 mM ZnCl and 0.05% (w/v) “Brij 35” (trade mark) detergent) in the presence (10 concentrations) or absence of inhibitors. Activity is determined by measuring the fluorescence at λex 320 nm and λem 405 nm. Percent inhibition is calculated as follows: % Inhibition is equal to the [Fluorescenceplus inhibitor−Fluorescencebackground] divided by the [Fluorescenceminus inhibitor−Fluorescencebackground]. MMP14
A protocol for testing against other matrix metalloproteinases, including MMP9, using expressed and purified pro MMP is described, for instance, by C. Graham Knight et al., (1992) FEBS Lett., 296(3), 263-266.

[5] = molecular target: T4, Recombinant human MMP 14 catalytic domain (Homo sapiens, UniProt P50281); test: Isolated enzyme assay MMP14; assay type: biochemical; conditions: read-out: hMMP14 IC50
T4 construct: Recombinant human MMP 14 catalytic domain; made in house
Description: Recombinant human MMP 14 catalytic domain may be expressed and purified as described by Parkar A. A. et al, (2000), Protein Expression and Purification, 20, 152. The purified enzyme can be used to monitor inhibitors of activity as follows: MMP14 (10 ng/ml final concentration) is incubated for 60 minutes at room temperature with the synthetic substrate Mca-Pro-Cha-Gly-Nva-His-Ala-Dpa-NH2 (10 μM) in assay buffer (0.1M “Tris-HCl” (trade mark) buffer, pH 7.5 containing 0.1M NaCl, 20 mM CaCl2, 0.020 mM ZnCl and 0.05% (w/v) “Brij 35” (trade mark) detergent) in the presence (5 concentrations) or absence of inhibitors. Activity is determined by measuring the fluorescence at λex 320 nm and λem 405 nm. Percent inhibition is calculated as follows: % Inhibition is equal to the [Fluorescenceplus inhibitor−Fluorescencebackground] divided by the [Fluorescenceminus inhibitor−Fluorescencebackground].

hMMP8 = molecular target: T5, hMMP8 (Homo sapiens, UniProt P22894); test: Isolated enzyme assay MMP8; assay type: biochemical
T5 construct: purchased Calbiochem
Description: Purified pro-MMP8 is purchased from Calbiochem. The enzyme (at 10 μg/ml) is activated by p-amino-phenyl-mercuric acetate (APMA) at 1 mM for 2.5 h, 35° C. The activated enzyme can be used to monitor inhibitors of activity as follows: MMP8 (200 ng/ml final concentration) is incubated for 90 minutes at 35° C. (80% H2O) with the synthetic substrate Mca-Pro-Cha-Gly-Nva-His-Ala-Dpa-NH2 (12.5 μM) in assay buffer (0.1M “Tris-HCl” (trade mark) buffer, pH 7.5 containing 0.1M NaCl, 30 mM CaCl2, 0.040 mM ZnCl and 0.05% (w/v) “Brij 35” (trade mark) detergent) in the presence (10 concentrations) or absence of inhibitors. Activity is determined by measuring the fluorescence at λex 320 nm and λem 405 nm. Percent inhibition is calculated as follows: % Inhibition is equal to the [Fluorescenceplus inhibitor−Fluorescencebackground] divided by the [Fluorescenceminus inhibitor−Fluorescencebackground]. MMP9

T1 sequence (P39900 106-263 limits assumed): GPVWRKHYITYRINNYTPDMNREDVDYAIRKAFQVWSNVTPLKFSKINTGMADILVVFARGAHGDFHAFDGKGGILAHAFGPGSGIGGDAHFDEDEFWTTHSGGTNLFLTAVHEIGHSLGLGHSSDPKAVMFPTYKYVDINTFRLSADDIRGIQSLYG
T2 sequence (Q99542 98-256 limits assumed): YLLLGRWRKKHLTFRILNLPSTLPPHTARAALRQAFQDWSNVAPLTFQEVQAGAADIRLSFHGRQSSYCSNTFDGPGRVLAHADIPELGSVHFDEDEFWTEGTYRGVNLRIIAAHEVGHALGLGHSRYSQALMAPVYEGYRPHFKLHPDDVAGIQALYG
T5 sequence (P22894 101-467): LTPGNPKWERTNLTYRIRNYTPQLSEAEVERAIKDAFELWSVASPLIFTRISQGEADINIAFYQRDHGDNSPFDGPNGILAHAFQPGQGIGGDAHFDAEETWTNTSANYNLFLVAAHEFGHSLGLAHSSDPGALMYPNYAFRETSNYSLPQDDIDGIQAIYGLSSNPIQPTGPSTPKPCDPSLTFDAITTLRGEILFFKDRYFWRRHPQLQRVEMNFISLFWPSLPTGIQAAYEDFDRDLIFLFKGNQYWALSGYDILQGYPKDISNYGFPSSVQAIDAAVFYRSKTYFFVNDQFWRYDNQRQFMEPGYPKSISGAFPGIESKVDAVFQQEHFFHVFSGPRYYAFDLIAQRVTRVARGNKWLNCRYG

| Structure (SMILES) | solubility [1] [µM] | IC50 [2] [nM] | IC50 [3] [nM] | Protein binding (% free) (plasma protein) | IC50 [4] [nM] | IC50 [5] [nM] | IC50 (hMMP8) [nM] | Solubility pH 7.4 [μM] |
| --- | --- | --- | --- | --- | --- | --- | --- | --- |
| C[C@]1(CS(=O)(=O)N2CC=C(C#Cc3ccc(Cl)cc3)CC2)NC(=O)NC1=O [(5S)-5-({[4-[(4-chlorophenyl)ethynyl]-3,6-dihydropyridin-1(2H)-yl]sulfonyl}methyl)-5-methylimidazolidine-2,4-dione, reference compound] | 49 (≈ 20 µg/mL) | 2 | 3980 | 1.75 | 9 | 4300 | 180 | – |
| Cc1ccc(C#CC2=CCN(S(=O)(=O)C[C@@]3(C)NC(=O)NC3=O)CC2)cc1 [(5S)-5-methyl-5-({[4-[(4-methylphenyl)ethynyl]-3,6-dihydropyridin-1(2H)-yl]sulfonyl}methyl)imidazolidine-2,4-dione, reference compound] | 72 (≈ 27.9 µg/mL) | 3 | 1970 | 2.25 | 34 | 4430 | 384 | – |
| C[C@]1(CS(=O)(=O)N2CC=C(C#Cc3cnc(C4CC4)nc3)CC2)NC(=O)NC1=O [Example 1, (5S)-5-({[4-[(2-Cyclopropylpyrimidin-5-yl)ethynyl]-3,6-dihydropyridin-1(2H) -yl]sulfonyl}methyl)-5-methylimidazolidine-2,4-dione] | 396 (≈ 165 µg/mL) | 6 | – | 18 | 5 | > 10000 | 2530 | – |
| C[C@]1(CS(=O)(=O)N2CC=C(C#Cc3cnc(C(F)(F)F)nc3)CC2)NC(=O)NC1=O [Example 3] | – | 6 | 7900 | – | 5 | > 10000 | 547 | 118 |
| CCc1ncc(C#CC2=CCN(S(=O)(=O)C[C@@]3(C)NC(=O)NC3=O)CC2)cn1.O=C(O)C(F)(F)F [Example 5, (5S)-5-({[4-[(2-Ethylpyrimidin-5-yl)ethynyl]-3,6-dihydropyridin-1(2H) -yl]sulfonyl}methyl)-5-methylimidazolidine-2,4-dione trifluoroacetate] | 91 | 9 | – | 47 | 9 | > 10000 | 1140 | – |
